This passage reports RP-LC retention time results from the METLIN SMRT retention time set (Domingo-Almenara et al. 2019).

The data set in a line: gradient 5% acetonitrile 3 min, to 50% in 2 min, to 85% in 15 min, held 3 min, 100 µL/min. The conditions noted are these: column: Zorbax Extend-C18 2.1 x 50 mm; eluents: water / acetonitrile, 0.1% formic acid. In outline:
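Pure standards were run in mixtures of ~100 molecules by HPLC coupled to a quadrupole time-of-flight mass spectrometer. The column was a Zorbax Extend-C18 (2.1 × 50 mm, 1.8 μm) at 100 μL/min, with water and acetonitrile each containing 0.1% formic acid, in positive and negative ionization mode. Dead and dwell volumes were 40 μL and 900 μL. Retention time was taken from computationally picked adduct peaks, each manually inspected, with data collected over 3 months.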
As for `Cc1c2cnn(-c3ccccc3)c(=O)c2c(C)n1C(C)C(=O)NCCN1CCCC1` (configuration not stated), the RP-LC retention time amounted to 617 s.
The figure for `CCOC(=O)c1cc2n(n1)CC(C)(C(=O)NCc1ccc(C)cc1)N(C1CC1)C2=O` (configuration not stated) is 786 s.
In the case of `O=C(CSCC(=O)Nc1nc2ccccc2s1)Nc1nc(-c2cccs2)cs1` it was 854 s.
The figure for `O=C(NCc1cccs1)c1ccc2c(c1)N(C(=O)c1ccc(F)cc1)CC2` is 880 s; for `CCOc1ccc(NC(=O)c2nc(N(C)C)c3c(C)cc(C)nc3n2)cc1` it is 661 s.
In turn, `O=C(Cn1c(-c2ccccc2F)nc2ccccc21)N1CCOCC1` came in with an RP-LC retention time of 600 s.
The figure for `Cc1nncn1C1CN(C(=O)Nc2ccc(Cl)cc2C(F)(F)F)C1` is 662 s; for `Cc1ccc(S(=O)(=O)N2CC=C(c3cn(C)c4ncccc34)CC2)cc1` it is 990 s.
Regarding `CSc1ccc(CNC(=O)C2CCCN(c3ncc(-c4ccc(F)cc4)cn3)C2)cc1` (configuration not stated), the RP-LC retention time amounted to 1090 s.
The figure for `Cn1cc(S(=O)(=O)N2CCOCC2)cc1C(=O)N1CCN(c2ccccn2)CC1` is 574 s; for `Cc1noc(-c2cccc(OC3CN(S(=O)(=O)c4c(C)noc4C)C3)c2)n1` it is 964 s; for `COc1ccc(CN2CC3(CCN(S(=O)(=O)c4ccc(F)cc4)CC3)C2=O)cc1` it is 904 s.
The figure for `Cc1ccc(-c2cc(C(F)(F)F)on2)cc1S(=O)(=O)N1CCCCC1C` (configuration not stated) is 852 s; for `Cc1nn(CC(=O)NCCN(C)Cc2ccccc2)c(=O)c2noc(C)c12` it is 595 s.
The figure for `CN1C(=O)CCC2(CNC(=O)NCCc3ccccc3)CCCC=C12` (configuration not stated) is 763 s; for `CCc1ccc(NC(=O)Cn2cnc3nc4c(cc3c2=O)CCCC4)cc1` it is 788 s.
For `O=C(CC1CCCCN1S(=O)(=O)c1ccccc1)NCCc1c[nH]c2ccccc12` (configuration not stated), the RP-LC retention time is 794 s.
The figure for `CCc1nc(-c2csc(S(=O)(=O)N3CCCC(C(=O)NCc4ccc(Cl)cc4)C3)c2)no1` (configuration not stated) is 1030 s.
The figure for `C=CCn1c(=O)c2ccccc2n(Cc2nc(-c3ccc(Cl)c(F)c3)no2)c1=O` is 1120 s.
In the case of `O=C(NCc1cc(F)cc(F)c1)C1CCN(c2cncnc2N2CCCCC2)CC1` it was 700 s.
The molecule `Cc1ccccc1CNC(=O)C1CCCN1S(=O)(=O)c1cc2c(cc1Cl)NC(=O)CO2` (configuration not stated) had an RP-LC retention time of 786 s.
With `COc1cccc2cc(C(=O)NC3CNC(=O)C3)oc12` (configuration not stated), the RP-LC retention time stood at 586 s.
Take `CCOc1ccc(CC(=O)N2CCC3(CC2)N=C(c2ccc(C)cc2)NO3)cc1`: the RP-LC retention time came to 871 s.
In the case of `CN1c2ccc(Cl)cc2C(=O)NC12CCN(C(=O)c1ccc3c(c1)OCO3)CC2` it was 769 s.
The figure for `COc1ccc2c(c1)C1(CCN(S(=O)(=O)c3cccc(C)c3)C1)C(=O)N2` (configuration not stated) is 840 s.
As for `Cc1cccc(N(C)S(=O)(=O)c2ccsc2-c2nc(C)no2)c1`, the RP-LC retention time turned out to be 978 s.
The figure for `Cc1ccc(N2CCC(NC(=O)Nc3cccc(C)c3)C2=O)cc1` (configuration not stated) is 862 s.
In the case of `COc1cc(NC(=O)CN2C(=O)C3CCCCN3c3ccc(C(=O)N(C)C)cc32)cc(OC)c1OC` (configuration not stated) it was 734 s; in that of `CC(=O)N1c2ccc(S(=O)(=O)NCc3ccc4c(c3)CCN4C(=O)C(C)C)cc2CC1C` (configuration not stated), 801 s; in that of `COc1cc(=O)n2c(c1C(=O)NC1CCCCCCC1)CCCC2`, 734 s.
Regarding `Cc1nc2c(ccc3nc(NC(=O)c4ccc5c(c4)OCCO5)sc32)s1`, the RP-LC retention time was 858 s.
In the case of `Cc1nn2c(CNC(=O)c3ccsc3)c(-c3ccccc3)nc2s1` it was 782 s.
In the case of `COc1ccc(NC(=O)N2CCOc3ccc(C)cc32)cc1OC` it was 827 s; in that of `N#CCn1cccc1-c1nc(-c2ccncc2)no1`, 685 s; in that of `O=C1CCC(C(=O)N2CCC(c3c[nH]c4ccccc34)(c3c[nH]c4ccccc34)CC2)N1` (configuration not stated), 711 s.
In the case of `Cc1ccc(-c2ccc(N3CCN(c4ccccn4)CC3)nn2)cc1S(=O)(=O)N1CCOCC1` it was 623 s.
As to `COc1ccc(OC)c(CNC(=O)Cn2cc(-c3nnco3)c3ccccc32)c1`, the RP-LC retention time was 765 s.
The figure for `COc1ccc(OC(=O)c2cn(CC(C)C)c(=O)c3ccccc23)cc1` is 1180 s; for `COC(=O)c1ccc(C(=O)OC)c(NC(=O)c2cnc3n(c2=O)CCS3)c1` it is 700 s; for `O=C(NCc1ccc2c(c1)CCCN2C(=O)C1CCC1)c1cc(F)cc(F)c1` it is 934 s.
The figure for `CCOc1ccc(S(=O)(=O)Nc2cc(-c3cn4ccccc4n3)ccc2C)cc1` is 687 s.
In the case of `O=C(CN1CC=C(c2cnn(-c3ccc(F)cc3)c2)CC1)N1CCN(c2ccccc2F)CC1` it was 748 s.
For `Cn1cnnc1C1CCCCN1S(=O)(=O)c1cccs1` (configuration not stated), the RP-LC retention time stood at 639 s.
The figure for `COc1ccc(O)c2c(=O)c3c(OC)cc4c(c3oc12)[C@@H]1C=CO[C@@H]1O4` is 979 s; for `CO[C@H]1CN(C(C)C)[C@H]1C1CCN(C(=O)C2CC=CC2)CC1` it is 593 s.
The figure for `COc1ccc(-c2noc(C3CC(=O)N(c4ccc(OC)c(OC)c4)C3)n2)cc1OC` (configuration not stated) is 743 s; for `CCOc1cc(C(=O)NC2CCN(c3cc(-c4ccc(Cl)cc4)[nH]n3)C2)cc(OCC)c1OCC` (configuration not stated) it is 927 s; for `O=C(NC1CC1)c1nc(C(=O)N2CCN(c3ccccc3F)CC2)cs1` it is 818 s.
The figure for `CCn1ncc(CN(C)C(=O)C2CN(C(=O)c3ccccc3)CC23CCCCC3)c1C` (configuration not stated) is 774 s; for `Cc1nn(-c2ccccc2)c2c1nc(CCC(=O)N1CCN(c3ccccn3)CC1)c(=O)n2C` it is 601 s.
In turn, `Cc1ccccc1-n1ncc2c(C)nn(CC(=O)Nc3cccc(C(F)(F)F)c3)c(=O)c21` displayed an RP-LC retention time of 941 s.
The figure for `CCNC(=O)C1CCN(C(=O)Nc2ccc(NC(=O)Nc3ccc(CC)cc3)cc2)CC1` is 733 s; for `CC(C)OCCCNC(=O)c1ccc2c(c1)N(C)C(=O)C1CCCCN21` (configuration not stated) it is 770 s; for `COc1cccc(-n2c(N3CCC(C(=O)NCC4CC4)CC3)nc3ccsc3c2=O)c1` it is 745 s.
In the case of `Cc1ccccc1Nc1c(-c2ccccc2O)nc2ccccn12` it was 701 s; in that of `CN1C(=O)c2cc(S(=O)(=O)Nc3ccc(F)cc3)ccc2Oc2cccnc21`, 906 s; in that of `Cc1nn(-c2ccc(-c3ccccc3)nn2)c(C)c1S(=O)(=O)N1CCCC(C)C1` (configuration not stated), 1170 s.
In the case of `Cc1noc(C)c1S(=O)(=O)N1[C@H]2CC[C@@H]1c1cnc(-c3ccccc3)nc1C2` it was 1050 s.
For `O=C(c1ccc2c(c1)OCO2)N1CC(c2noc(C3CCCN3CC3CC3)n2)C1` (configuration not stated), the RP-LC retention time stood at 610 s.
In the case of `CCC(C)NC(=O)Cn1c(=O)ccc2cc(S(=O)(=O)N3CCC(C)CC3)ccc21` (configuration not stated) it was 833 s; in that of `COc1cc2c3c(c1OC)-c1cc4c(cc1CC3(C#N)N(C(=O)c1ccccc1)CC2)OCO4` (configuration not stated), 987 s; in that of `COc1ccc(Cn2nc3ccc(S(=O)(=O)N4CCCCCC4)cn3c2=O)cc1F`, 681 s.
In the case of `O=C(CN1C(=O)C2CCCCN2c2ccc(S(=O)(=O)N3CCCC3)cc21)NC1CC1` (configuration not stated) it was 770 s; in that of `CCN1C(=O)C2(CCN(C(=O)NC(C)C)CC2)c2ccccc21`, 740 s.
The figure for `O=C1NCCOCCN(S(=O)(=O)c2cccc3cccnc23)[C@@H]2CCCC[C@H]12` is 735 s; for `O=C(Nc1ccc2c(c1)OCO2)N1CCN(c2nc3ccccc3n(Cc3ccccc3)c2=O)CC1` it is 1010 s; for `CCOC(=O)c1c(C)[nH]c(C(=O)N2CCC(CC(=O)NC(C)c3ccccc3)CC2)c1C` (configuration not stated) it is 780 s.
Turning to `CC1=C(c2ccc(Cl)cc2)S(=O)(=O)N=C1N1CCCN(C(=O)c2cccs2)CC1`, the RP-LC retention time came out at 840 s.
The figure for `CCOc1ccc(CNC(=O)C2CCCN(C(=O)c3[nH]c(C)c(C(=O)OC(C)C)c3C)C2)cc1` (configuration not stated) is 877 s; for `Cc1ccnc(N2CCCC(C(=O)N3CCN(C)CC3)C2)n1` (configuration not stated) it is 538 s; for `CC(C)S(=O)(=O)c1cccc(-c2nnc(N)o2)c1` it is 589 s.
In the case of `CC(C)c1cc(C2CCCN2C(=O)NC2CCCC2)on1` (configuration not stated) it was 823 s.
The figure for `CCN(CC)c1nc2cc(C(=O)NCC3CC3)ccc2c(=O)n1Cc1ccc(C)cc1` is 1090 s.
`CCCN1C(=O)c2cccnc2Sc2cc(C(=O)N3CCOCC3)ccc21` displayed an RP-LC retention time of 682 s.
In the case of `CCCS(=O)(=O)N1CCN(c2ccc(-n3cccn3)nn2)CC1` it was 694 s.
In the case of `COc1ccc(S(=O)(=O)N2CCN(c3cc(C)nc(N4CCCCC4)n3)CC2)cc1Cl` it was 768 s; in that of `COCCn1c(SCc2nc(-c3ccc(F)cc3)no2)nc2cc3c(cc2c1=O)OCO3`, 1070 s.
